Assay results from the supplement of paper PMC10307832.

Columns and labels:
Assay in all cases: relative viability (nuclei count vs DMSO), 5 days (fraction); higher = more cells survive
HCC-15 = tested on: HCC-15
Outline: (§1)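 The day after seeding in 1536-well plates, lung cancer cell lines were treated by pin tool with a single drug, or with a fixed anchor-drug dose together with five library-drug doses (not always all listed) in √10 steps. After 5 days, a combined fix-and-stain solution (final 0.05% Triton X-100, 1% formaldehyde, 1 ug/ml Hoechst) was added. Nuclei counted on 4× images gave relative viability as treated counts over vehicle counts, reported as the median of duplicate plates.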

NCI-H1651 = tested on: NCI-H1651
Outline: as §1

EMC-BAC-2 = tested on: EMC-BAC-2
Outline: as §1

BEN = tested on: BEN
Outline: as §1

NCI-H838 = tested on: NCI-H838
Outline: as §1

NCI-H358 = tested on: NCI-H358
Outline: as §1

NCI-H2023 = tested on: NCI-H2023
Outline: as §1

LK-2 = tested on: LK-2
Outline: as §1

COR-L 105 = tested on: COR-L 105
Outline: as §1

NCI-H322M = tested on: NCI-H322M
Outline: as §1

ABC-1 = tested on: ABC-1
Outline: as §1

NCI-H1563 = tested on: NCI-H1563
Outline: as §1

NCI-H727 = tested on: NCI-H727
Outline: as §1

201T = tested on: 201T
Outline: as §1

HCC-44 = tested on: HCC-44
Outline: as §1

NCI-H520 = tested on: NCI-H520
Outline: as §1

CAL-12T = tested on: CAL-12T
Outline: as §1

NCI-H460 = tested on: NCI-H460
Outline: as §1

EKVX = tested on: EKVX
Outline: as §1

LU99A = tested on: LU99A
Outline: as §1

PC-3 [JPC-3] = tested on: PC-3 [JPC-3]
Outline: as §1

Q: For `Cc1cn(-c2cc(NC(=O)c3ccc(C)c(Nc4nccc(-c5cccnc5)n4)c3)cc(C(F)(F)F)c2)cn1` [Nilotinib] + CS(=O)(=O)N1CCN(Cc2cc3nc(-c4cccc5[nH]ncc45)nc(N4CCOCC4)c3s2)CC1 [Pictilisib] (partner 1 µM), which relative viability (HCC-15; first compound 0.001 µM) is on record?
A: Its relative viability is 0.703.

Q: And the relative viability (HCC-15; first compound 0.003162 µM)?
A: The relative viability was 0.874.

Q: What about the relative viability (HCC-15; first compound 0.01 µM) of the same molecule?
A: Its relative viability is 0.843.

Q: And the relative viability (HCC-15; first compound 0.03162 µM)?
A: Its relative viability is 0.542.

Q: And the relative viability (HCC-15; first compound 0.1 µM)?
A: Its relative viability is 0.301.

Q: And the relative viability (NCI-H1651; first compound 0.001 µM)?
A: The relative viability was 0.576.

Q: And the relative viability (NCI-H1651; first compound 0.003162 µM)?
A: The relative viability was 0.619.

Q: And the relative viability (NCI-H1651; first compound 0.01 µM)?
A: The relative viability was 0.638.

Q: And the relative viability (NCI-H1651; first compound 0.03162 µM)?
A: The relative viability was 0.568.

Q: And the relative viability (NCI-H1651; first compound 0.1 µM)?
A: Its relative viability is 0.308.

Q: And the relative viability (EMC-BAC-2; first compound 0.001 µM)?
A: The relative viability was 0.528.

Q: What about the relative viability (EMC-BAC-2; first compound 0.003162 µM) of the same molecule?
A: The relative viability was 0.538.

Q: And the relative viability (EMC-BAC-2; first compound 0.01 µM)?
A: The relative viability was 0.606.

Q: And the relative viability (EMC-BAC-2; first compound 0.03162 µM)?
A: Its relative viability is 0.486.

Q: And the relative viability (EMC-BAC-2; first compound 0.1 µM)?
A: The relative viability was 0.479.

Q: And the relative viability (BEN; first compound 0.001 µM)?
A: Its relative viability is 0.588.

Q: And the relative viability (BEN; first compound 0.003162 µM)?
A: The relative viability was 0.552.

Q: What about the relative viability (BEN; first compound 0.01 µM) of the same molecule?
A: The relative viability was 0.574.

Q: And the relative viability (BEN; first compound 0.1 µM)?
A: The relative viability was 0.556.

Q: What about the relative viability (NCI-H838; first compound 0.001 µM) of the same molecule?
A: The relative viability was 0.408.

Q: And the relative viability (NCI-H838; first compound 0.003162 µM)?
A: The relative viability was 0.491.

Q: And the relative viability (NCI-H838; first compound 0.01 µM)?
A: The relative viability was 0.335.

Q: And the relative viability (NCI-H838; first compound 0.03162 µM)?
A: The relative viability was 0.41.

Q: And the relative viability (NCI-H838; first compound 0.1 µM)?
A: Its relative viability is 0.336.

Q: And the relative viability (NCI-H358; first compound 0.001 µM)?
A: The relative viability was 0.375.

Q: And the relative viability (NCI-H358; first compound 0.003162 µM)?
A: Its relative viability is 0.438.

Q: And the relative viability (NCI-H358; first compound 0.01 µM)?
A: Its relative viability is 0.348.

Q: And the relative viability (NCI-H358; first compound 0.03162 µM)?
A: The relative viability was 0.444.

Q: What about the relative viability (NCI-H358; first compound 0.1 µM) of the same molecule?
A: The relative viability was 0.301.

Q: And the relative viability (NCI-H2023; first compound 0.001 µM)?
A: The relative viability was 0.225.

Q: And the relative viability (NCI-H2023; first compound 0.003162 µM)?
A: The relative viability was 0.192.

Q: What about the relative viability (NCI-H2023; first compound 0.01 µM) of the same molecule?
A: The relative viability was 0.226.

Q: What about the relative viability (NCI-H2023; first compound 0.03162 µM) of the same molecule?
A: The relative viability was 0.221.

Q: What about the relative viability (NCI-H2023; first compound 0.1 µM) of the same molecule?
A: The relative viability was 0.101.

Q: And the relative viability (LK-2; first compound 0.001 µM)?
A: Its relative viability is 0.614.

Q: What about the relative viability (LK-2; first compound 0.003162 µM) of the same molecule?
A: Its relative viability is 0.451.

Q: What about the relative viability (LK-2; first compound 0.01 µM) of the same molecule?
A: The relative viability was 0.577.

Q: And the relative viability (LK-2; first compound 0.03162 µM)?
A: The relative viability was 0.594.

Q: What about the relative viability (LK-2; first compound 0.1 µM) of the same molecule?
A: The relative viability was 0.608.

Q: What about the relative viability (COR-L 105; first compound 0.001 µM) of the same molecule?
A: The relative viability was 0.435.

Q: What about the relative viability (COR-L 105; first compound 0.01 µM) of the same molecule?
A: The relative viability was 0.407.

Q: What about the relative viability (COR-L 105; first compound 0.03162 µM) of the same molecule?
A: The relative viability was 0.437.

Q: What about the relative viability (COR-L 105; first compound 0.1 µM) of the same molecule?
A: Its relative viability is 0.331.

Q: And the relative viability (NCI-H322M; first compound 0.001 µM)?
A: The relative viability was 0.651.

Q: And the relative viability (NCI-H322M; first compound 0.003162 µM)?
A: The relative viability was 0.503.

Q: What about the relative viability (NCI-H322M; first compound 0.03162 µM) of the same molecule?
A: Its relative viability is 0.529.

Q: What about the relative viability (NCI-H322M; first compound 0.1 µM) of the same molecule?
A: Its relative viability is 0.528.

Q: What about the relative viability (ABC-1; first compound 0.001 µM) of the same molecule?
A: The relative viability was 0.758.

Q: What about the relative viability (ABC-1; first compound 0.003162 µM) of the same molecule?
A: Its relative viability is 0.697.

Q: And the relative viability (ABC-1; first compound 0.01 µM)?
A: The relative viability was 0.788.

Q: And the relative viability (ABC-1; first compound 0.03162 µM)?
A: Its relative viability is 0.619.

Q: And the relative viability (ABC-1; first compound 0.1 µM)?
A: Its relative viability is 0.346.

Q: What about the relative viability (NCI-H1563; first compound 0.001 µM) of the same molecule?
A: Its relative viability is 0.553.

Q: And the relative viability (NCI-H1563; first compound 0.003162 µM)?
A: The relative viability was 0.608.

Q: What about the relative viability (NCI-H1563; first compound 0.01 µM) of the same molecule?
A: The relative viability was 0.649.

Q: And the relative viability (NCI-H1563; first compound 0.03162 µM)?
A: Its relative viability is 0.602.

Q: And the relative viability (NCI-H1563; first compound 0.1 µM)?
A: Its relative viability is 0.46.

Q: What about the relative viability (NCI-H727; first compound 0.001 µM) of the same molecule?
A: Its relative viability is 0.382.

Q: What about the relative viability (NCI-H727; first compound 0.01 µM) of the same molecule?
A: The relative viability was 0.447.

Q: What about the relative viability (NCI-H727; first compound 0.1 µM) of the same molecule?
A: The relative viability was 0.264.

Q: What about the relative viability (201T; first compound 0.001 µM) of the same molecule?
A: The relative viability was 0.732.

Q: What about the relative viability (201T; first compound 0.003162 µM) of the same molecule?
A: The relative viability was 0.742.

Q: What about the relative viability (201T; first compound 0.01 µM) of the same molecule?
A: Its relative viability is 0.531.

Q: What about the relative viability (201T; first compound 0.1 µM) of the same molecule?
A: Its relative viability is 0.459.

Q: What about the relative viability (HCC-44; first compound 0.001 µM) of the same molecule?
A: The relative viability was 0.607.

Q: What about the relative viability (HCC-44; first compound 0.003162 µM) of the same molecule?
A: Its relative viability is 0.743.

Q: And the relative viability (HCC-44; first compound 0.01 µM)?
A: Its relative viability is 0.589.

Q: And the relative viability (HCC-44; first compound 0.03162 µM)?
A: Its relative viability is 0.517.

Q: What about the relative viability (HCC-44; first compound 0.1 µM) of the same molecule?
A: The relative viability was 0.37.

Q: What about the relative viability (NCI-H520; first compound 0.001 µM) of the same molecule?
A: Its relative viability is 0.283.

Q: And the relative viability (NCI-H520; first compound 0.01 µM)?
A: Its relative viability is 0.296.

Q: And the relative viability (NCI-H520; first compound 0.03162 µM)?
A: The relative viability was 0.283.

Q: What about the relative viability (NCI-H520; first compound 0.1 µM) of the same molecule?
A: The relative viability was 0.232.

Q: And the relative viability (CAL-12T; first compound 0.001 µM)?
A: Its relative viability is 0.45.

Q: And the relative viability (CAL-12T; first compound 0.01 µM)?
A: Its relative viability is 0.354.

Q: What about the relative viability (CAL-12T; first compound 0.03162 µM) of the same molecule?
A: The relative viability was 0.307.

Q: What about the relative viability (CAL-12T; first compound 0.1 µM) of the same molecule?
A: Its relative viability is 0.398.

Q: And the relative viability (NCI-H460; first compound 0.001 µM)?
A: The relative viability was 0.356.

Q: What about the relative viability (NCI-H460; first compound 0.003162 µM) of the same molecule?
A: Its relative viability is 0.41.

Q: What about the relative viability (NCI-H460; first compound 0.01 µM) of the same molecule?
A: Its relative viability is 0.402.

Q: What about the relative viability (NCI-H460; first compound 0.03162 µM) of the same molecule?
A: The relative viability was 0.263.

Q: And the relative viability (NCI-H460; first compound 0.1 µM)?
A: The relative viability was 0.418.

Q: What about the relative viability (EKVX; first compound 0.001 µM) of the same molecule?
A: The relative viability was 0.486.

Q: What about the relative viability (EKVX; first compound 0.003162 µM) of the same molecule?
A: The relative viability was 0.588.

Q: And the relative viability (EKVX; first compound 0.01 µM)?
A: The relative viability was 0.531.

Q: What about the relative viability (EKVX; first compound 0.03162 µM) of the same molecule?
A: The relative viability was 0.344.

Q: What about the relative viability (EKVX; first compound 0.1 µM) of the same molecule?
A: The relative viability was 0.552.

Q: And the relative viability (LU99A; first compound 0.001 µM)?
A: Its relative viability is 0.295.

Q: What about the relative viability (LU99A; first compound 0.003162 µM) of the same molecule?
A: The relative viability was 0.412.

Q: What about the relative viability (LU99A; first compound 0.01 µM) of the same molecule?
A: The relative viability was 0.328.

Q: What about the relative viability (LU99A; first compound 0.03162 µM) of the same molecule?
A: Its relative viability is 0.342.

Q: What about the relative viability (LU99A; first compound 0.1 µM) of the same molecule?
A: The relative viability was 0.277.

Q: And the relative viability (PC-3 [JPC-3]; first compound 0.001 µM)?
A: The relative viability was 0.791.

Q: And the relative viability (PC-3 [JPC-3]; first compound 0.003162 µM)?
A: Its relative viability is 0.88.

Q: What about the relative viability (PC-3 [JPC-3]; first compound 0.01 µM) of the same molecule?
A: The relative viability was 0.833.

Q: What about the relative viability (PC-3 [JPC-3]; first compound 0.03162 µM) of the same molecule?
A: Its relative viability is 0.747.

Q: And the relative viability (PC-3 [JPC-3]; first compound 0.1 µM)?
A: Its relative viability is 0.342.
